Data on three compounds can be found in patent publication US8436004B2, “Bicycloaniline derivative” (MSD K.K., priority 2007, dated 2013).

Structures can show the parent of a compound that is named as a salt.

Experiment [1] concerns Cdc2 (Cdk1) tyrosine 15-phosphorylation in NCI-H1299 cells. The experiment in a line: Cdc2 (Cdk1) tyrosine 15-phosphorylation-inhibitory effect in camptothecin-treated NCI-H1299 cells (ELISA). It is filed as cell-based. The conditions noted are these: Homo sapiens; NCI-H1299, camptothecin 200 nM 16 hours, then test compound + nocodazole 8 hours; read-out: Cdc2-Y15 Phosphorylation-Inhibitory Effect (H1299, + camptothecin) (EC50). From the text: Pharmacological Test 2 (Method of Determining Drug Potency with Cells (Cdc2 (Cdk1) Tyrosine 15-Phosphorylation-Inhibitory Effect))
Fetal bovine serum (FBS) was obtained from Morgate; media RPMI1640 and DMEM were from Invitrogen; camptothecin was from Sigma; gemcitabine was from Nippon Eli Lilly; nocodazole and protease inhibitor cocktail were from Sigma; rabbit anti-Cdc2 antibody and mouse anti-Cdc2 antibody were from Santa Cruz Biotechnology; rabbit anti-tyrosine 15-phosphorylated Cdc2 antibody and horseradish peroxidase-labeled anti-mouse IgG antibody were from Cell Signaling Technology; sure blue reserve TMB peroxidase substrate was from Kirkegaard and Perry Laboratories.
Human non-small cell lung cancer cells (NCI-H1299) and human colon cancer cells (WiDr) were obtained from American Type Culture Collection (ATCC).
In the method of using NCI-H1299 cells, the cells were suspended in a medium of 10% FBS-added RPMI1640, and the cell suspension was applied to a 96-well Nunclondelta-processed plastic plate (bought from Nunc), in an amount of 2000 cells/100 μL/well, in which the cells were incubated overnight in 5% CO2-95% air at 37° C. Camptothecin was dissolved in dimethylsulfoxide (DMSO), and diluted with a medium of 10% FBS-added RPMI1640, and then this was applied to the plate on which the cells had been previously sowed, in an amount of 50 μL/well in such a manner that the final concentration of camptothecin could be 200 nM. Then, the cells were incubated for 16 hours at 37° C. in 5% CO2-95% air. The test compound was stepwise diluted with DMSO, then diluted with 4000 nM nocodazole-containing, 10% FBS-added RPMI1640, and applied to the plate on which the camptothecin-treated cells had been sowed, in an amount of 50 μL/well. The cells were incubated for 8 hours at 37° C. in 5% CO2-95% air, then the culture was removed, and a cytolytic buffer was added to the plate in an amount of 100 μL/well, shaken at 4° C. for 2 hours, then frozen at −80° C., and thawed to give a cell solution. Cdc2 and tyrosine 15-phosphorylated Cdc2 in the cell solution were determined through enzyme-linked immunosorbent assay (ELISA), and the ratio of tyrosine 15-phosphorylated Cdc2 to Cdc2 was calculated to obtain the 50% phosphorylation-inhibitory concentration of the test compound to the cells (EC50, nM). The cytolytic buffer used herein is an aqueous solution containing 20 mM Hepes (pH 7.5), 150 mM sodium chloride, 1 mM disodium ethylenediaminetetraacetate, 0.1% polyoxyethylene (10) octylphenyl ether, 1% protease inhibitor cocktail, 1 mM dithiothreitol, 2 mM sodium orthovanadate, 10 mM sodium fluoride and 10 mM glycerol diphosphate. Cdc2 was determined through ELISA as follows: A rabbit anti-Cdc2 antibody solution, which had been diluted 200-fold with 50 mM carbonate-bicarbonate buffer (pH 9.6), was applied to a 96-well maxisorpimmuno plate (bought from Nunc), in an amount of 50 μL/well, and statically kept overnight at 4° C. so as to fix the antibody on the plate. Next, this was washed three times with phosphate-buffered physiological saline (PBS), and 5% bovine serum albumin-containing PBS (5% BSA/PBS) was added thereto in an amount of 300 μL/well, and statically kept at room temperature for 2 hours, and then again washed three times with PBS. A mouse anti-Cdc2 antibody solution that had been diluted 100-fold with 0.05% polyoxyethylene sorbitan monolaurate and 1% BSA-containing Tris-HCl-buffered physiological saline (1% BSA/TBS-T) was added to it in an amount of 50 μL/well, and the cell solution was added thereto in an amount of 5 μL/well and statically kept overnight at 4° C. Next, this was washed three times with 0.05% polyoxyethylene sorbitan monolaurate and 0.1% BSA-containing Tris-HCl-buffered physiological saline (0.1% BSA/TBS-T), and then a horseradish peroxidase-labeled anti-mouse IgG antibody solution that had been diluted 2000-fold with 1% BSA/TBS-T was added thereto in an amount of 70 μL/well, and statically kept at room temperature for 3 hours. […]

Experiment [2] deals with Human colon cancer cells (WiDr). Kind of experiment: Checkpoint-escape effect in gemcitabine-treated WiDr cells (phosphorylated histone H3-positive cells). It is filed as cell-based. The note with it: gemcitabine 100 nM 24 hours, then test compound + nocodazole 8 hours. From the text:
Pharmacological Test 3 (Method of Determining Drug Potency with Cells (Checkpoint-Escape Effect))
Fetal bovine serum (FBS) was obtained from Morgate; a medium of DMEM was from Invitrogen; gemcitabine was from Nippon Eli Lilly; nocodazole and 4′,6-diamidino-2-phenylindole were from Sigma; rabbit anti-phosphorylated histone H3 antibody was from Upstate; and fluorescence-labeled (Alexa Fluor 488) anti-rabbit IgG antibody was from Molecular Probe.
Human colon cancer cells (WiDr) were obtained from American Type Culture Collection (ATCC).
The cells were suspended in a medium of 10% FBS-added DMEM, and the cell suspension was applied to a poly-D-lysine-coated 96-well plastic plate (bought from Becton Dickinson) in an amount of 2000 cells/100 μL/well, in which the cells were incubated overnight in 5% CO2-95% air at 37° C. […] Next, this was washed with PBS, and a solution containing 4′,6-diamidino-2-phenylindole that had been diluted with 1% BSA/PBS to have a concentration 10 μg/mL and a fluorescence-labeled (Alexa Fluor 488) anti-rabbit IgG antibody that had been diluted 250-fold was added to it in an amount 50 μL/well, and reacted in a dark place at room temperature for 60 minutes. […]

In the case of `CN1Cc2cc(Nc3ncc4c(=N)n(-c5c(Cl)cccc5Cl)c(=O)[nH]c4n3)ccc2C2(CC2)C1` [Example 1, 3-(2,6-dichlorophenyl)-4-imino-7-[(2′-methyl-2′,3′-dihydro-1′H-spiro[cyclopropane-1,4′-isoquinolin]-7′-yl)amino]-3,4-dihydropyrimido[4,5-d]pyrimidin-2(1H)-one dihydrochloride], the EC50 turned out to be 19 nM in experiment [1] and 37 nM in experiment [2].
For `CN1Cc2cc(Nc3ncc4c(=N)n(-c5c(Cl)cccc5Cl)c(=O)[nH]c4n3)ccc2C1(C)C` [Example 7, 3-(2,6-dichlorophenyl)-4-imino-7-[(1,1,2-trimethyl-2,3-dihydro-1H-isoindol-5-yl)amino]-3,4-dihydropyrimido[4,5-d]pyrimidin-2(1H)-one], in experiment [1], the EC50 was found to be 17 nM.
The same measure, in the same setting: for `CN1Cc2cc(Nc3ncc4c(=N)n(-c5c(Cl)cccc5Cl)c(=O)[nH]c4n3)ccc2C(C)(C)C1` [Example 2, 3-(2,6-dichlorophenyl)-4-imino-7-{[2,4,4-trimethyl-1,2,3,4-tetrahydroisoquinolin-7-yl]amino}-3,4-dihydropyrimido[4,5-d]pyrimidin-2(1H)-one] the value was 27 nM.
